From patent US20100273722A1, “MODIFIED MINIATURE PROTEINS” (Yale University, priority 2007, published 2010)
Read-outs that look alike come from different tables or passages of the source. Residues, ends and D or L forms follow the SMILES beside them.

Key:
[1] = biological target: c-Src SH3 domain-GST fusion protein (Gallus gallus, UniProt P00523); assay: Fluorescence polarization direct binding assay, c-Src SH3; set-up: species or system chicken; conditions: 50 nM fluorescently labeled ligand, read-out: Kd, c-Src SH3
Protocol: Polarization was measured by excitation with vertically polarized light at 485 nm and the fluorescence emission detected at 530 nm in both the vertical and horizontal directions. An average of five measurements were recorded for each well. Samples were equilibrated at room temperature for 25 min before analysis, a time sufficient for the binding reactions to reach equilibrium. The polarization data were fit using Kaleidagraph v3.6 software to Eq. 5, which is derived from first principles without assumptions. […] In this equation, Pobs is the observed polarization value at any given concentration of target protein (GST•SH3 domain). Pmin is the polarization of peptide^Flu at 50 nM in the absence of target protein. Pmax is the maximum polarization of peptide^Flu at saturation with target protein. Kd is the equilibrium dissociation constant. […] Free fits are shown. Kd values were estimated as described.

[2] = biological target: T1, Hck kinase (Homo sapiens, UniProt P08631); assay: Hck kinase activation, NADH-coupled assay; format: biochemical; conditions: for Activity / Fold-Activation: Activator 50 micromolar; for Fold-Activation: rate with ligand / rate without ligand; for EC50: read-out: Kact (concentration of activator at half-maximal activation)
T1 construct: His6 (N); made in house; host or cells: HighFive insect cells, co-infected with Hck and Csk baculovirus
Protocol: Activation of Hck kinase was measured using a validated NADH-coupled assay as described. Briefly, purified Hck kinase (15 micromolar) was first pre-incubated with 500 micromolar ATP and 20 mM MgCl2 for about 30 min on ice to initiate autophosphorylation of Y416. The autophosphorylated product (0.55 micromolar final concentration) was then incubated in Hck Reaction Buffer (20 mM MgCl2, 0.1 mM DTT, 20 μg/mL BSA, 100 mM HEPES (pH 7.5)) for 10 min at room temperature with the indicated concentration of Nef or miniature protein. At this time the remaining assay components (1 mM PEP, 0.2 mM NADH, 6 U pyruvate kinase (Type II from rabbit muscle, Sigma), 6 U L-lactic dehydrogenase (Type II from rabbit muscle, Sigma), 600 micromolar substrate peptide, and 500 micromolar ATP) were added to initiate the reaction (total volume 200 microliters) and the absorbance at 340 nm was monitored every 10 sec for 10 min using a Beckman DU 730 UVN is Spectrophotomer. The activation constant Kact for each ligand was calculated from the initial rate as a function of ligand concentration as previously described, using Eq. 6. Fold activation was calculated by dividing the rate in the presence of ligand by the rate in the absence of ligand.
va=Vact[L]/(Kact±[L]) Equation 6.
In this equation va is velocity measured in the presence of ligand minus the velocity measured in its absence; Vact is the maximal activated velocity minus the velocity measured in the absence of ligand; [L] is the concentration of activator and Kact is concentration of activator at half-maximal activation.

[3] = Sedimentation equilibrium analytical ultracentrifugation of aPP variants, monomer-n-mer fit (self-association); format: physicochemical; conditions: for n (stoichiometry of the self-associated complex): monomer-n-mer fit; for n (stoichiometry of the self-associated complex) / lnKA when n = 4 / % monomer at 30 μM: 25° C.; for lnKA when n = 4: monomer-tetramer; for Kd (self-association, tetramer): n = 4, 25° C., calculated from ln KA; for % monomer at 30 μM: 30 μM peptide
Protocol: Analytical ultracentrifugation experiments were performed using peptide solutions prepared in Tris.Cl buffer (25 mM Tris base, 50 mM NaCl, (pH 8.0)) at the appropriate concentrations (5 micromolar to 200 micromolar). Samples were then centrifuged to equilibrium at 25° C. at 42,000, 50,000, and 60,000 rpm. Data were collected with a 0.001 cm step size and successive scans were initiated at 2 h intervals. Samples were judged to have reached equilibrium when the radial concentration gradient remained unchanged over three successive scans using the Match module of Heteroanalysis software v1.1.19. The solvent density (ρ, rho) and partial specific volume ( ν, nu) were calculated using the Sedimentation Interpretation Program “Sednterp” software v1.08.
The data for each peptide (multiple concentrations at three speeds) was first fit globally to an equation describing the sedimentation of an ideal species of molecular weight Mn (Eq. 1) using Heteroanalysis software v1.1.19:
where C represents the concentration of the sedimenting species at distances r and r0 cm from the center of rotation; ν (nu) is the partial specific volume of the sedimenting species in cc/g; ρ (rho) is the density of the supporting buffer in g/cc; ω (omega) is the angular velocity of the rotor (radians/s); Mn is the “molar” molecular weight of sedimenting species (g/mol); R is the universal gas constant (8.315×10^7 ergs K^−1 mol^−1) and T is the temperature in degrees Kelvin.
In order to quantify this self-association, the data for each peptide was next fit globally to a monomer-n-mer equilibrium model using Eq. 2:
where n is the stoichiometry of the self-associated complex. Errors were calculated for n and lnKA using f-statistics to two standard deviations.
Samples were prepared in PBS buffer and centrifuged at speeds of 42,000 (41), 50,000 (42), or 60,000 RPM (43) at 25° C. Experimental data are shown as points; lines indicate the best fit to a monomer-n-mer model described by Eq. 2.

T1 sequence (P08631 whole entry): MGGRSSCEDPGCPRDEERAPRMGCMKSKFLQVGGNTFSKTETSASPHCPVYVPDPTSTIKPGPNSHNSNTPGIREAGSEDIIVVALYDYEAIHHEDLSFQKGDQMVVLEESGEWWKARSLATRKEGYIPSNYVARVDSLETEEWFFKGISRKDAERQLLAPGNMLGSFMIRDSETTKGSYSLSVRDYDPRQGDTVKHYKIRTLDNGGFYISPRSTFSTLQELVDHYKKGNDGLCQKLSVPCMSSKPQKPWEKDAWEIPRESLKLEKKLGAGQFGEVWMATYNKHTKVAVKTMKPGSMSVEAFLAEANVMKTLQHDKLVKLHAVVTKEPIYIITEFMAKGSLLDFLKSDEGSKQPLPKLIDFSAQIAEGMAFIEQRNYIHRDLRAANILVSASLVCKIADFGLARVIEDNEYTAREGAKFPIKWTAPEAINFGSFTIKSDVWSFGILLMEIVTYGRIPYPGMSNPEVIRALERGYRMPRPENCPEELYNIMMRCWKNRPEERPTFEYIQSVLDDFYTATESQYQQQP

Row | Kd ([1]; PBS pH 7.4) [µM] | Activity [2] [nmol/s] | Fold-Activation [2] | EC50 [2] [µM] | Kd [1] [µM] | n (stoichiometry of the self-associated complex) [3] | lnKA when n = 4 [3] | Kd (self-association, tetramer) [3] | % monomer at 30 μM [3] [%] | Molecule
1 | 3.68 ± 0.06 | 83.6 ± 6.0 | 8 ± 3 | – | – | – | – | – | – | CC[C@H](C)[C@H](NC(=O)[C@H](CC(C)C)NC(=O)[C@H](CC(=O)O)NC(=O)[C@H](CCC(=O)O)NC(=O)[C@@H](NC(=O)[C@@H]1CCCN1C(=O)[C@H](C)NC(=O)[C@H](CC(=O)O)NC(=O)[C@H](CC(=O)O)NC(=O)CNC(=O)[C@@H]1CCCN1C(=O)[C@H](CC(N)=O)NC(=O)[C@H](CCCNC(=N)N)NC(=O)[C@@H]1CCCN1C(=O)[C@@H]1CCCN1C(=O)[C@H](CC(C)C)NC(=O)[C@@H]1CCCN1C(=O)[C@@H]1CCCN1C(=O)[C@H](C)N)C(C)C)C(=O)N[C@@H](CCCNC(=N)N)C(=O)N[C@@H](Cc1ccccc1)C(=O)N[C@@H](Cc1ccc(O)cc1)C(=O)N[C@@H](CC(=O)O)C(=O)N[C@@H](CC(N)=O)C(=O)N[C@@H](CC(C)C)C(=O)N[C@@H](CCC(N)=O)C(=O)N[C@@H](CCC(N)=O)C(=O)N[C@@H](Cc1ccc(O)cc1)C(=O)N[C@@H](CC(C)C)C(=O)N[C@@H](CC(N)=O)C(=O)N[C@H](C(=O)N[C@H](C(=O)N[C@H](C(=O)N[C@@H](CCCNC(=N)N)C(=O)N[C@@H](Cc1c[nH]cn1)C(=O)N[C@@H](CCCNC(=N)N)C(=O)N[C@@H](Cc1ccc(O)cc1)C(N)=O)[C@@H](C)O)C(C)C)C(C)C [PP1] (H-APPLPPRNPGDDAPVEDLIRFYDNLQQYLNVVTRHRY-NH2)
2 | 1.3 ± 0.2 | 138.8 ± 7.6 | 13 ± 5 | 48 ± 13 | – | – | – | – | – | CC[C@H](C)[C@H](NC(=O)[C@H](CC(C)C)NC(=O)[C@H](CC(=O)O)NC(=O)[C@H](CCC(=O)O)NC(=O)[C@@H](NC(=O)[C@@H]1CCCN1C(=O)[C@H](C)NC(=O)[C@H](CC(=O)O)NC(=O)[C@H](CC(=O)O)NC(=O)CNC(=O)[C@H](CCCNC(=N)N)NC(=O)[C@H](CC(N)=O)NC(=O)[C@H](CCCNC(=N)N)NC(=O)[C@@H]1CCCN1C(=O)[C@@H]1CCCN1C(=O)[C@H](CC(C)C)NC(=O)[C@@H]1CCCN1C(=O)[C@@H]1CCCN1C(=O)[C@H](C)N)C(C)C)C(=O)N[C@@H](CCCNC(=N)N)C(=O)N[C@@H](Cc1ccccc1)C(=O)N[C@@H](Cc1ccc(O)cc1)C(=O)N[C@@H](CC(=O)O)C(=O)N[C@@H](CC(N)=O)C(=O)N[C@@H](CC(C)C)C(=O)N[C@@H](CCC(N)=O)C(=O)N[C@@H](CCC(N)=O)C(=O)N[C@@H](Cc1ccc(O)cc1)C(=O)N[C@@H](CC(C)C)C(=O)N[C@@H](CC(N)=O)C(=O)N[C@H](C(=O)N[C@H](C(=O)N[C@H](C(=O)N[C@@H](CCCNC(=N)N)C(=O)N[C@@H](Cc1c[nH]cn1)C(=O)N[C@@H](CCCNC(=N)N)C(=O)N[C@@H](Cc1ccc(O)cc1)C(N)=O)[C@@H](C)O)C(C)C)C(C)C [PP2] (H-APPLPPRNRGDDAPVEDLIRFYDNLQQYLNVVTRHRY-NH2)
3 | – | 83.9 ± 5.4 | 7 ± 3 | 48 ± 22 | 0.35 ± 0.04 | – | – | – | – | CC[C@H](C)[C@H](NC(=O)[C@H](CC(C)C)NC(=O)[C@H](CC(=O)O)NC(=O)[C@H](CCC(=O)O)NC(=O)[C@@H](NC(=O)[C@@H]1CCCN1C(=O)[C@H](C)NC(=O)[C@H](CC(=O)O)NC(=O)[C@H](CCCNC(=N)N)NC(=O)[C@@H]1CCCN1C(=O)[C@H](CCCNC(=N)N)NC(=O)[C@H](CC(N)=O)NC(=O)[C@H](CCCNC(=N)N)NC(=O)[C@@H]1CCCN1C(=O)[C@@H]1CCCN1C(=O)[C@H](CC(C)C)NC(=O)[C@@H]1CCCN1C(=O)[C@@H]1CCCN1C(=O)[C@H](C)N)C(C)C)C(=O)N[C@@H](CCCNC(=N)N)C(=O)N[C@@H](Cc1ccccc1)C(=O)N[C@@H](Cc1ccc(O)cc1)C(=O)N[C@@H](CC(=O)O)C(=O)N[C@@H](CC(N)=O)C(=O)N[C@@H](CC(C)C)C(=O)N[C@@H](CCC(N)=O)C(=O)N[C@@H](CCC(N)=O)C(=O)N[C@@H](Cc1ccc(O)cc1)C(=O)N[C@@H](CC(C)C)C(=O)N[C@@H](CC(N)=O)C(=O)N[C@H](C(=O)N[C@H](C(=O)N[C@H](C(=O)N[C@@H](CCCNC(=N)N)C(=O)N[C@@H](Cc1c[nH]cn1)C(=O)N[C@@H](CCCNC(=N)N)C(=O)N[C@@H](Cc1ccc(O)cc1)C(N)=O)[C@@H](C)O)C(C)C)C(C)C [PP3] (H-APPLPPRNRPRDAPVEDLIRFYDNLQQYLNVVTRHRY-NH2)
4 | – | – | – | – | – | 3.77 | when n = 4 26.28 | 3.9×10^−12 M^3 | – | GPSQPTAPGDDAPVEDLIRFYDNLQQYLNVVTRHRY [aPP^Y7A]
5 | – | – | – | – | – | 4.06 | when n = 4 29.34 | 1.8 × 10^−13 M^3 | 78 | GPSQPTAPGDDAPVEDLIRFYDNLRQYLNVVTRHRY [aPP^Y7AQ25R]
6 | – | – | – | – | – | 4.48 | when n = 4 27.92 | 7.5 × 10^−13 M^3 | 90 | GPSQPTAPGDDAVPEDLIRFYDNLQQYLNVVTRHRY [aPP^Y7AP13VV14P]
7 | – | – | – | – | – | 3.87 | when n = 4 23.29 | 7.6×10^−11 M^3 | – | GPSQPTYPGDDAPVEDLIRAYDNLQQYLNVVTRHRY [aPP^F20A]

Row | Molecule | Kd ([1]; PBS pH 7.4) [µM] | Activity [2] [nmol/s] | Fold-Activation [2] | EC50 [2] [µM] | Kd [1] [µM] | n (stoichiometry of the self-associated complex) [3] | lnKA when n = 4 [3] | Kd (self-association, tetramer) [3] | % monomer at 30 μM [3] [%]
8 | aPP^Y7AT6E: SEQ ID NO: 8, CPSQPEAPGDDAPVEDLIRFYDNLQQYLNVVTRHRY (Table 1 prints GPSQPE...) | – | – | – | – | – | 3.88 | – | 2.0 × 10^−13 M^3 | 79
